Data: article PMC4245164 (ACS Chemical Biology, 2014)

Biological target: NLuc (Oplophorus gracilirostris, UniProt Q9GV45, A31E/A60N/A81I/F95D/I117V/K70R/L54V/L99Q/M102K/N193R/P142E/Q151K/Q38R/Q45L/V71I/Y165I)
Assay: Biochemical NLuc enzyme assay with S16 secNLuc cell culture medium

NLuc, sequence (Q9GV45 28-196 with the stated changes): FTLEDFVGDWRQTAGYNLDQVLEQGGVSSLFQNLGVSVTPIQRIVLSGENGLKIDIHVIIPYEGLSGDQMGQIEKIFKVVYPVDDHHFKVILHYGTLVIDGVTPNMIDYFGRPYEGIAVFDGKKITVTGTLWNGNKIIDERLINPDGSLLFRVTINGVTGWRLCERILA

Compound: CCOC(=O)C1=C(C)NC(C)=C(C(=O)OC)C1c1cccc([N+](=O)[O-])c1 (centres unmarked) [nitrendipine]
- IC50: 6 µM

Compound: COC(=O)C1=C(C)NC(C)=C(C(=O)OC(C)C)C1c1cccc2nonc12 (centres unmarked) [isradipine]
- IC50: 6 µM
